According to patent publication US20150005347A1, “NITROGEN-CONTAINING HETEROCYCLIC DERIVATIVE HAVING 2-IMINO GROUP AND PEST CONTROL AGENT INCLUDING THE SAME” (MEIJI SEIKA PHARMA CO., LTD., priority 2012, published 2015):
Read-outs that look alike come from different tables or passages of the source.

Key:
Type in all cases: in vivo
[1] = test system: Nilaparvata lugens exhibiting drug resistance to imidacloprid; details: soil irrigation
Procedure, shortened: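 Imidacloprid-resistant Nilaparvata lugens collected outdoors in Kumamoto (2007); an indoor-reared Kagoshima population served as the susceptible strain. Potted rice seedlings soil-drenched with compound in 10% acetone water at set concentrations; larvae held at 25° C, 16 h light/8 h dark. Mortality (%) = dead/(survived + dead) × 100, tested in duplicate.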

[2] = test system: Aulacophora femoralis; test: Pest control test of Aulacophora femoralis, cucumber leaf disk foliar spray
Method: Test Example 4 Pest Control Test of Aulacophora femoralis
A leaf disk having a diameter of 2.8 cm was cut out from a cucumber in pot culture, and a drug solution of the compound of the present invention at a predetermined concentration, which had been prepared so as to be a 50% acetone water (0.05% Tween20 available), was sprayed to the leaf disk. After an air drying process, adults were released thereto. Thereafter, the adults were left to stand in a thermostatic chamber (16 hours of light period-8 hours of dark period) at 25° C. […] Test in duplicate.
Mortality of adults(%)={number of dead adults/(number of survived adults+number of dead adults)}×100

[3] = test system: Ctenocephalides felis; test: Pest control test of Ctenocephalides felis on the body surface of a dog; details: 72 h, read-out: mortality of insects
Method: Test Example 26 Pest Control Test of Ctenocephalides felis
Three petri dishes with a diameter of 9 cm and a height of 1 cm were adhered to the back of a dog. Compound 1-20 of the present invention was dissolved in ethanol so as to be 5.35 mg/mL, and the mixture was added dropwise to the body surface of the dog in the petri dish. The petri dish was sufficiently dried, and then twenty insects of Ctenocephalides felis were released thereto. Each dog was housed in a cage and reared under conditions of 10 hours of light period and 14 hours of dark period at 23° C. Three days after the release, the petri dishes were detached therefrom to measure the numbers of living and dead insects of Ctenocephalides felis and blood-sucking individuals, and the mortality of insects was calculated according to the following equation.
(§1) Mortality of insects(%)={number of dead insects/(number of survived insects+number of dead insects)}×100

[4] = test system: susceptible populations of Sogatella furcifera; test: Soil irrigation test, susceptible populations of Sogatella furcifera
Method: (§2) A rice seedling in pot culture was subjected to soil irrigation treatment with a drug solution of the compound of the present invention at a predetermined concentration, which had been prepared so as to be a 10% acetone water. […] Thereafter, the larvae were left to stand in a thermostatic chamber (16 hours of light period-8 hours of dark period) at 25° C. […] The test was performed in duplicate.
(§3) Mortality of larvae(%)={number of dead larvae/(number of survived larvae+number of dead larvae)}×100
Further, for comparison, the test against a populations of Sogatella furcifera which is highly susceptible to fipronil was performed by the same method as described above, and the results thereof are shown in Table 44.
(§4) In addition, for the origin of test pests, bugs collected within the city of Odawara in 2010 as the drug resistant Sogatella furcifera, and bugs collected within the city of Chigasaki in 1970 and then successively reared indoors for a long time as the susceptible populations of Sogatella furcifera were used.

[5] = test system: Trigonotylus caelestialium; test: Pest control test of Trigonotylus caelestialium, wheat seedling dipping; details: Trigonotylus caelestialium
Procedure, shortened: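 Wheat seedlings (4 days post-sowing) dipped 30 s in compound in 50% acetone water with 0.05% Tween20, air-dried, then exposed to two second-instar larvae in a lidded glass tube at 25° C, water supplied from below. Larval mortality (%) = dead/(dead+survived)×100.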

[6] = test system: Aphis gossypii; test: Pest control test of Aphis gossypii, cucumber leaf disk foliar spray; details: Aphis gossypii, foliar
Procedure, shortened: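 Cucumber leaf disks (2.0 cm) sprayed with compound at a set concentration in 50% acetone water with 0.05% Tween20, air-dried, then infested with first instar larvae; held at 25 °C, 16 h light/8 h dark. Larval mortality (%) = dead/(survived + dead) × 100; duplicate.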

[7] = test system: Sogatella furcifera exhibiting drug resistance to fipronil; test: Soil irrigation test, Sogatella furcifera exhibiting drug resistance to fipronil
Method: Test Example 19 Pest Control Test of Sogatella furcifera
as §2, §3, §4

[8] = test system: Laodelphax striatella exhibiting drug resistance to fipronil; test: Foliar spray test, Laodelphax striatella exhibiting drug resistance to fipronil; details: Laodelphax striatellus, 144 h, read-out: mortality of larvae
Method: Test Example 15 Pest Control Test of Laodelphax striatella
A drug solution of the compound of the present invention at a predetermined concentration, which had been prepared so as to be a 50% acetone water (0.05% Tween20 available), was foliar sprayed to a rice seedling in pot culture. […] Thereafter, the larvae were left to stand in a thermostatic chamber (16 hours of light period-8 hours of dark period) at 25° C. […] Test in duplicate.
as §3
Further, for the origin of test pests, insects of Laodelphax striatella collected outdoors within the Kumamoto prefecture in 2006 were used.

[9] = test system: Coptotermes formosanus; test: Pest control test of Coptotermes formosanus, treated filter paper; details: 168 h, read-out: mortality of insects
Method: Test Example 27 Pest Control Test of Coptotermes formosanus
A filter paper was allowed to be soaked in a drug solution of the compound of the present invention at a predetermined concentration, which had been prepared with acetone. The filter paper was sufficiently blow-dried and then put into a plastic petri dish, and 5 insects of Coptotermes formosanus (worker ant) were each released thereto. Thereafter, the insects were left to stand in a thermostatic chamber (16 hours of light period-8 hours of dark period) at 25° C. […] The test was performed in duplicate.
as §1

[10] = read-out: % Mortality, Test Example4 Aulacophora femoralis
[11] = 72 h, read-out: mortality of larvae
[12] = read-out: % Mortality, Test Example8 Trigonotylus caelestialium
[13] = read-out: % Mortality, Test Example3 Aphis gossypii

For `FC(F)(F)C(=S)/N=c1\ccccn1Cc1ccc(Cl)nc1` [Compound 1-20, N-[1-((6-chloropyridin-3-yl)methyl)pyridin-2(1H)-ylidene]-2,2,2-trifluoroethanethioamide], the “insecticidal effects against drug resistant Nilaparvata lugens” value ([1]; imidacloprid-resistant) was “high insecticidal effects”, the “mortality of larvae against drug resistant populations compared with susceptible populations of Nilaparvata lugens” value ([1]; imidacloprid-resistant vs susceptible) was “equivalent mortality of larvae” and the mortality at 10 ppm ([2]; 72 h, read-out: mortality of adults) was at least 80%. The mortality at 1.25 ppm [2, 10] was 100%, the mortality at 5 ppm [2, 10] was 100% and the mortality at 5350 µg/mL [3] was 100%. For the same compound, the “Insecticidal effects against Sogatella furcifera (mortality of larvae %), Susceptible populations six days after the treatment” value ([4]; Rate 0.005 mg/pot) was 75%, the “Insecticidal effects against Sogatella furcifera (mortality of larvae %), Susceptible populations six days after the treatment” value ([4]; Rate 0.01 mg/pot) was 88% and the mortality at 10 ppm [5, 11] was at least 80%. It also gave a mortality at 50 ppm [5, 11] of at least 80%, a mortality at 2 ppm [5, 12] of 50% and a mortality at 10 ppm [5, 12] of 100%. For the same compound, the mortality at 50 ppm [5, 12] was 100%, the mortality at 20 ppm [6, 11] was at least 80% and the mortality at 100 ppm [6, 11] was at least 80%. It also gave a mortality at 1.25 ppm [6, 13] of 75%, a mortality at 5 ppm [6, 13] of 100% and a mortality at 20 ppm [6, 13] of 100%. The mortality at 100 ppm [6, 13] was 100%, the “Insecticidal effects against Sogatella furcifera (mortality of larvae %), Drug resistant populations six days after the treatment” value ([7]; Rate 0.005 mg/pot) was 53% and the “Insecticidal effects against Sogatella furcifera (mortality of larvae %), Drug resistant populations six days after the treatment” value ([7]; Rate 0.01 mg/pot) was 88%. For the same compound, the “insecticidal effects against drug resistant Sogatella furcifera” value ([7]; fipronil-resistant) was “high insecticidal effects”, the “mortality of larvae against drug resistant populations compared with susceptible populations of Sogatella furcifera” value ([7]; fipronil-resistant vs susceptible) was “equivalent mortality of larvae” and the mortality at 1.25 ppm [8] was at least 80%. The mortality at 0.5 µg/cm2 [9] was 100%.
